This note sets out measurements from patent publication US20250268876A1, “TREATMENT OF HIDRADENITIS SUPPURATIVA WITH ORISMILAST” (UNION THERAPEUTICS A/S, priority 2021, published 2025).

The IC50 is the concentration that inhibits the measured activity by half. High values mean weaker potency in that assay, low ones greater potency in that assay. As a reminder, the NOAEL is the highest tested level that showed no adverse finding. Usually inhibition stands for the percentage by which the read-out fell short of the control. In general, EC50 refers to the concentration that produces a half-maximal response. High values mean lower potency in that assay, low ones higher potency in that assay.

The target of data set [1] is PDE4A1 (Homo sapiens, UniProt P27815). The data set can be described thus: biochemical.
PDE4A1, sequence (P27815 1-647 isoform P27815-4): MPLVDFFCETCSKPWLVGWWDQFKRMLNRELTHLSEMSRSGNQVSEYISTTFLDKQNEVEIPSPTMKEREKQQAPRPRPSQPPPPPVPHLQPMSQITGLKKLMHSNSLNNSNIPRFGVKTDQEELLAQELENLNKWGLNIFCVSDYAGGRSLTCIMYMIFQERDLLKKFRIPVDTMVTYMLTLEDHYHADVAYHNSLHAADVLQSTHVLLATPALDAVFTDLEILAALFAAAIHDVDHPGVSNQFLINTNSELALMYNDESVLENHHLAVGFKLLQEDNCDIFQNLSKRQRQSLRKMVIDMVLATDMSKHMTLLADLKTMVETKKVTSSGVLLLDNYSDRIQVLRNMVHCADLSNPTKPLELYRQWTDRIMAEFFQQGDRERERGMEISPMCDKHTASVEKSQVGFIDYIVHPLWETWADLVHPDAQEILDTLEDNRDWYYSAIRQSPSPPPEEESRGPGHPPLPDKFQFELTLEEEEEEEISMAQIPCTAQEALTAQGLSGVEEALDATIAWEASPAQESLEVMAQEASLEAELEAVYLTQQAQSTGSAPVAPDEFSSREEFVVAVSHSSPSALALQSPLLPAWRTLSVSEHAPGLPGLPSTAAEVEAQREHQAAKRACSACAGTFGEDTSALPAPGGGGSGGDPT
A short description of data set [2]: in vivo. The conditions noted are these: ferret, po.
The subject of data set [3] is IL-4. The data set can be described thus: Human whole blood cytokine secretion assay (TruCulture). Format: cell-based. The conditions noted are these: read-out: % inhibition at 20 nM, IL-4, mean of 3 experiments. As for the experimental part:
(§1) TruCulture blood collection and incubation tubes were tested with fresh human whole blood with or without addition of 20 nM of the compound of formula (I). The best results were obtained using heparin-stabilised blood and anti-CD3/CD28 test tubes.

In data set [4] the test system is IL-8. The data set is described as above. In kind it is cell-based. The conditions noted are these: 20 nM. As for the experimental part:
as §1

For data set [5], the system named is TNF-α. The data set is described as above. The conditions noted are these: read-out: % inhibition at 20 nM, TNF-α, mean of 3 experiments. In kind it is cell-based. As for the experimental part:
as §1

In data set [6] the test system is IL-1. The data set is described as above. As to conditions: read-out: % inhibition at 20 nM, IL-1, mean of 3 experiments. Format: cell-based. As for the experimental part: as §1
For data set [7], the system named is IFN-γ. The data set is described as above. In kind it is cell-based. As to conditions: read-out: % inhibition at 20 nM, IFN-γ, mean of 3 experiments. As for the experimental part: as §1
Data set [8] relates to IL-13. The data set is described as above. Format: cell-based. The conditions noted are these: 20 nM. As for the experimental part:
as §1

Data set [9] has as its system IL-2. The description is as above. Format: cell-based. As to conditions: read-out: % inhibition at 20 nM, IL-2, mean of 3 experiments. As for the experimental part: as §1
Data set [10] concerns the target PDE4C2 (Homo sapiens, UniProt Q08493). The data set can be described thus: IMAP fluorescence polarisation PDE4 subtype assay. In kind it is biochemical. Background: Fluorescence polarisation rises when a labelled molecule tumbles more slowly, as on binding a larger partner.
Data set [11] concerns the target PDE4D3 (Homo sapiens, UniProt Q08499). Kind of data set: IMAP fluorescence polarisation PDE4 subtype assay. Format: biochemical. The conditions noted are these: compound 10^−7 M.
Data set [12] relates to human PBMC. Kind of data set: Viability, serum-free, hPBMC, LPS (ATP). In kind it is cell-based. As for the experimental part: Viability, Serum-Free, hPBMC, LPS
The viability of the cells from the TNF-α assay is measured in the wells using the ATP vialight kit (Perkin Elmer, ATP-lite M, cat. no 6016949). The assay detects the amount of ATP using a bioluminescent method that utilizes an enzyme, luciferase, which catalyses the formation of light from ATP and luciferin according to the following reaction:
The emitted light intensity is linearly related to the ATP concentration and is measured using a luminometer. The effect (inhibition of viability) of a test compound was calculated using equation 1:
[formula] • where • So=Emitted light intensity reflecting the ATP concentration in the presence of 0.1% DMSO, • Sc=Emitted light intensity reflecting the ATP concentration in the presence of 10 μM Actinomycin in 0.1% DMSO and • Sx=Emitted light intensity reflecting the ATP concentration in the presence of test compound in 0.1% DMSO.
This model describes a sigmoidal curve with an adjustable baseline, a. […]
[formula] • where • C=concentration of test compound • % Effect=normalized response calculated as described in Equation 1 • Emin=min response as compound concentration approaches 0 • Emax=max response as concentration of tested compound is increasing • EC50=Concentration of tested compound giving a response in the middle of Emin and Emax • nH=Hill coefficient or curve slope.

PDE4C2, sequence (Q08493 107-712): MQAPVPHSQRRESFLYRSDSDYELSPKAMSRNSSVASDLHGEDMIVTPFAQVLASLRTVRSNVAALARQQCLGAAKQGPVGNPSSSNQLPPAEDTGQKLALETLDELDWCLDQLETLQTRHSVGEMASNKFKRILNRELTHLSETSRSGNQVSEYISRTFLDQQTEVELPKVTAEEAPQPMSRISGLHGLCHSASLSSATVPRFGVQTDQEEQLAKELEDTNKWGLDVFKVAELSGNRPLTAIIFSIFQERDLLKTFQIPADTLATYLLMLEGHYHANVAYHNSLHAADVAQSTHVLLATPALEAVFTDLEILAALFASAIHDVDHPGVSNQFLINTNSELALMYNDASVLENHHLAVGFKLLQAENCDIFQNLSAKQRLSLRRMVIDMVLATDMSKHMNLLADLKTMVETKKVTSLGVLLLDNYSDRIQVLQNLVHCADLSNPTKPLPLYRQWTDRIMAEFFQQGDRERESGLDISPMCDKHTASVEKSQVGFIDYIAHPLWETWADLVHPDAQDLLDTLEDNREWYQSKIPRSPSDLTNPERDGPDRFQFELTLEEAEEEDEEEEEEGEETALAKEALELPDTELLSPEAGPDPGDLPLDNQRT
PDE4D3, sequence (Q08499 1-673 isoform Q08499-2): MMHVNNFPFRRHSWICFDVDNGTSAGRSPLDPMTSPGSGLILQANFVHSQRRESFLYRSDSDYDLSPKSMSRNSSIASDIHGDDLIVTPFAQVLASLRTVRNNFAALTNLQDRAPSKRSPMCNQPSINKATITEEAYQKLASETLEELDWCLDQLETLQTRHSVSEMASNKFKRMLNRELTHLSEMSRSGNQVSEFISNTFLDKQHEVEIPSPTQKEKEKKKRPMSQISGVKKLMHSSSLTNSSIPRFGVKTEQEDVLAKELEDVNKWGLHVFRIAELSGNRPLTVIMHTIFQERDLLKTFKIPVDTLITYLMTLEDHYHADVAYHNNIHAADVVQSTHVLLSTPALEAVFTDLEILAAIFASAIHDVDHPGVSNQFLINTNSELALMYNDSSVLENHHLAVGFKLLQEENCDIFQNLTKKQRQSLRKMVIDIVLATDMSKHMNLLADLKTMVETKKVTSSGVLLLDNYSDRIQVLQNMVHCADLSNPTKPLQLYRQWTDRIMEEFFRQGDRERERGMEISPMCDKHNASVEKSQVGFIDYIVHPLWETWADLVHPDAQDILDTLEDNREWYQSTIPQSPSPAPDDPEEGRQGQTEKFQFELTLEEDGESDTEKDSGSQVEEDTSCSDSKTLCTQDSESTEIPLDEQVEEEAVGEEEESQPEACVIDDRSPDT

Molecule `O=C(Cc1c(Cl)c[n+]([O-])cc1Cl)c1ccc(OC(F)F)c2c1OC1(CCS(=O)(=O)CC1)O2` [Compound (I), 2-(3,5-Dichloro-1-oxido-pyridine-4-yl)-1-(7-difluoro-methoxy-2′,3′,5′,6′-tetrahydro-spiro[1,3-benzodioxole-2,4′-(4H)-thiopyran-1′,1′-dioxide]-4-yl)ethanone] yielded an IC50 in data set [1] of 0.016 µM. Further, the NOAEL at 3 h in data set [2] is 3 mg/kg. Besides, the inhibition at 0.02 µM in data set [3] was found to be 44%; in data set [5], 60%; in [6], 40%; in [7], 54%; in data set [9], 50%. Moreover, the “Inhibition of IL-8 secretion (in words)” value in [4] is recorded as “not clearly inhibited”. Also, in data set [8], the “Inhibition of IL-13 secretion (in words)” value is recorded as “not clearly inhibited”. Besides, the “Inhibition (%)” value in data set [10] (compound 10^−7 M (100 nM)) is on record as “not significantly inhibited”. This molecule had an inhibition at 0.0001 µM in data set [10] (compound 10^−10 M) of 9%. In addition, 0.1 µM produced 74% inhibition in data set [11]. For the same molecule, the “Viability Emax, %” value in data set [12] is given as 7%. Further, the EC50 in data set [12] (Homo sapiens, PBMC) was over 9.99 µM.
